# Legend:
# [1] = target: hAChE (Homo sapiens, UniProt P22303); assay: ChE IC50 determination, method of Ellman, hAChE; format: biochemical
# Procedure: The inhibitory potencies of the compounds against the ChEs were determined using the method of Ellman following the procedure described previously. Briefly, compound stock solutions in DMSO were incubated with Ellman’s reagent and ChEs (final concentrations: 370 μmol/L Ellman’s reagent, approximately 1 nmol/L or 50 pmol/L hBChE or hAChE, respectively) in 0.1 mol/L sodium phosphate pH 8.0 for 5 min at 20 °C. For time-dependency measurements, the pre-incubation time was varied (1, 5, 15, 30 or 60 min). The reactions were started by the addition of the substrate (final concentration, 500 μmol/L butyrylthiocholine iodide or acetylthiocholine iodide for hBChE and hAChE, respectively). The final content of DMSO was always 1%. The increase in absorbance at 412 nm was monitored for 2 min using a 96-well microplate reader (Synergy HT, BioTek Instruments, VT, USA). The initial velocities in the presence (vi) and absence (v0) of the test compounds were calculated. The inhibitory potencies were expressed as the residual activities, according to Eq. (1):(1) RA = vi / v0
# For IC50 determinations, at least seven different concentrations for each compound were used. The IC50 values were obtained by plotting the residual ChE activities against the applied inhibitor concentrations, with the experimental data fitted to a four-parameter logistic function (GraphPad Prism 9.4). Tacrine and donepezil were used as positive controls.
# [2] = Hydrolysis of 8 in human plasma; format: in vitro ADME
# From the text: See Supporting Information Tables S4.
# [3] = MTS assay, metabolic activity; format: cell-based; settings: human, SH-SY5Y neuroblastoma cells, read-out: cytotoxic EC50
# Procedure: Cell culture and treatments The human neuroblastoma SH-SY5Y cell line was purchased from American Type Culture Collection (Manassas, VA, USA). Cells were cultured in Advanced Dulbecco’s modified Eagle’s medium (Gibco, Thermo Fisher Scientific, Waltham, MA, USA) supplemented with 10% fetal bovine serum (FBS, Gibco), 2 mmol/L L-glutamine, 50 U/mL penicillin and 50 μg/mL streptomycin (Sigma, St. Louis, MO, USA) in a humidified atmosphere of 95% air and 5% CO2 at 37 °C, and grown to 80% confluence. Prior to cell treatment, complete medium was replaced with serum-reduced medium (i.e., with 2% FBS). Compounds were prepared as a stock solution of 50 mmol/L in DMSO.
# MTS assay SH-SY5Y cells were seeded in 96-well plates (10^4/well) and assessed by MTS ([3-(4,5-dimethylthiazol-2-yl)-5-(3-carboxymethoxyphenyl)-2-(4-sulfophenyl)-2H-tetrazolium, inner salt) assay for their response to compounds. Cells were treated with increasing concentrations of compounds (0.1–10 μmol/L for 5, 1–100 μmol/L for 6–8) in a serum-reduced medium, and metabolic activity was assessed after 24 h (5) or 48 h (6–8) using the CellTiter 96® Aqueous One Solution Cell Proliferation Assay (Promega, Madison, WI, USA), in accordance with the manufacturer’s instructions. Absorbance was measured with an automatic microplate reader (Tecan Safire^2, Switzerland) at 492 nm. Results are presented as a percentage of the control (DMSO).
# [4] = tested on: BALB/c mice; assay: Acute in vivo toxicity
# From the text: All mice used were 9–15 weeks old wild-type BALB/c mice bred in the Laboratory of Animal Genomics at the Faculty of Veterinary Medicine, University of Ljubljana. For intravenous administration, 4 males and one female were additionally purchased from Envigo RMS Holding Corp. Mice were conventionally bred in open polycarbonate cages (Tecniplast, Buguggiate, Italy) and provided with wood chip bedding (Lignocel®, Rettenmaier and Sons, Germany). Mice were kept under standard conditions, i.e., a 12:12 dark–light cycle (LED, CCT 3000 K, ≤ 25 lux above the cage), at temperature 21–24 °C, and 50%–60% humidity. They were fed irradiated rodent diet with minimal levels of phytoestrogens (Teklad global 16% protein rodent diet®, BN 2916, Envigo, Udine, Italy) and had access to drinkable tap water ad libitum. The in vivo study was evaluated by the National Ethics Committee for Animal Experiments and approved by the Veterinary Administration of the Republic of Slovenia; license number document no. U34401-10/2021/8, U34401-10/2021/13, and U34401-10/2021/1.
# According to the OECD guidelines for acute toxicity testing, compound 8 was initially tested at 10 mg/kg dosage (10-fold the intended therapeutic dose (1 mg/kg)) in 3 female mice and repeated on 3 additional animals. […] After this fasting period, the animals were weighed and compound 8 was administered by oral gavage at 200 μL/20 g body weight using flexible plastic feeding tubes (20G × 30 mm, Instech Laboratories, USA). After administration, the animals were not fed for an additional hour. The mice were then observed regularly for the first 24 h, with particular attention paid to the first 4 h, and then daily for a total of 14 days, with attention paid to the changes in respiratory rate, heart rate, skin and fur, eyes and mucous membranes, behavioural patterns, and especially to the acute CNS toxicity symptoms (tremors, twitching, salivation, diarrhoea, lethargy, sleep, coma). At the end of the 14-day observation period, all experimental animals were euthanized with CO2 and cervical dislocation.
# [5] = tested on: tau; assay: Western blot of APP/PS1 mice brain homogenates, tau; format: in vivo, C57BL/6J-TgN(APP/PS1)ZLFILAS mice; settings: 15-day treatment, 1 or 5 mg/kg ip
# [6] = pKa from solubility and partition measurements; format: physicochemical; settings: break in the logP vs. pH and log(solubility) vs. pH plot
# Procedure: The supernatants were diluted 1:5 with 50% MeCN or used directly for UPLC analysis (calibration curve was constructed from 0.5–100 mg/L standard solutions of compound 8).
# Shake-flask partition coefficient measurement was done according to OECD guideline 107 (27. 7. 1995) and EPA OPPTS 830.7550 guideline (1996). Briefly, PBS pH 7.4 buffer (50 mL) and n-octanol (50 mL) were thoroughly shaken to ensure saturation of both phases and left to separate. Compound 8 stock solution in n-octanol (approx. 1000 mg/L) was accurately pipetted into Eppendorf tubes (500, 1000, 500 μL, respectively) and n-octanol-saturated PBS pH 7.4 buffer (500, 500, 1000 μL, respectively) was added. Each solvent ratio was done in duplicates. The Eppendorf tubes were thoroughly shaken to ensure partition and centrifuged (5000 × g, 10 min) to separate the phases. Water phase (carefully sampled using needle and syringe) was transferred to HPLC vials directly, whereas n-octanol phases were diluted with MeCN (10–50×) prior to analysis. Additional dilutions were carried out, if needed.
# Sequence of hAChE (P22303 32-614): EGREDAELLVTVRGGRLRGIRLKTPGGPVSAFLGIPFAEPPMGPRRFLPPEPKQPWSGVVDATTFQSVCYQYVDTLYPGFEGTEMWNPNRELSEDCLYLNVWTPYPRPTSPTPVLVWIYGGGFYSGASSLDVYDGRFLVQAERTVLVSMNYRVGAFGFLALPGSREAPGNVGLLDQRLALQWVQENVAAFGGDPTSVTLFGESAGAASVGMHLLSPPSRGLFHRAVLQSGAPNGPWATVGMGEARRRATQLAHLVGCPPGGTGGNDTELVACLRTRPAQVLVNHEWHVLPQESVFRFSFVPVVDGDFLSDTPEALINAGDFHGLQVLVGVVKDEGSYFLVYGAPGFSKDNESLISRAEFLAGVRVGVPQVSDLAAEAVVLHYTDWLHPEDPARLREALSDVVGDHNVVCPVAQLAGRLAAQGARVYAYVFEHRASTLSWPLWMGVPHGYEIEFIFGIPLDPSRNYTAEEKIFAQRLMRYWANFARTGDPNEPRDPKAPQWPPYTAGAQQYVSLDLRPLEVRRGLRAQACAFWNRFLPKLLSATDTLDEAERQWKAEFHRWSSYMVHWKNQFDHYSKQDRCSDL
compound,measurement,setting,value
"CCN(CC)C(=O)n1cnc(C2(CC)Cc3ccccc3C2)c1 [Compound 8, N,N-Diethyl-4-(2-ethylindan-2-yl)-1H-imidazole-1-carboxamide]",hAChE time-dependency observed: Yes/No,[1]; pre-incubation time varied,No
same,remaining activity at 100 µM,"[1]; residual activity at 100 μmol/L, after 5 min preincubation, read-out: hAChE RA±SD (residual activity)",62%
same,8 present after 24 h,"[2]; control experiment, plasma pre-treated with BChE-selective covalent inhibitor isoOMPA",> 85%
same,half-life at 20 μg/L,"[2]; human, plasma, 37 °C, nominal starting concentration 20 μg/L",5 h
same,EC50 at 48 h,[3],> 100 µM
same,effects in preliminary safety testing,"[4]; 1 mg/kg p.o., mice",no effects were observed
same,survival,"[4]; 10 mg/kg p.o., 14-day observation",All animals survived
same,"acute cholinergic side effects (salivation, tremors)","[4]; 10 mg/kg p.o., mice",No acute cholinergic side effects
same,effects in preliminary safety testing,"[4]; 10 mg/kg p.o., mice",some adrenergic symptoms
same,onset of symptoms after administration,"[4]; 10 mg/kg p.o., mice",15 to 30 min
same,time after which all effects subsided,"[4]; 10 mg/kg p.o., mice",4 to 5 h
same,tau hyperphosphorylation in whole brain homogenates,[5],significantly lowered tau hyperphosphorylation
same,pKa,[6],4.1
